Source: patent publication US5100663A, “Tyr-Gly compositions useful in increasing immune response” (priority 1990, dated 1992)
Read-outs that look alike come from different tables or passages of the source. Non-standard residues stand in square brackets, D forms with d. Residues, ends and D or L forms follow the SMILES beside them.

Key:
[1] = system: cell-mediated immune system response; test: Amplifier (immunological) activity of HPLC fractions and their constituents; set-up: species or system human; conditions: for immunological activity as assayed by DH test: moieties in effluents of Example 5 process; for amplifier / immunological activity: HPLC fractions of human leukocyte dialysate and constituents
Text: Absorbance was monitored at […], 0.1 Absorbance Units=Full Scale. […] The first peak was lower than the second and third, in terms of absorbance units, and is believed to be an artifact of the system associated with the ethanol solvent or due to elution of salts. The second and third peaks varied in relative height from preparation to preparation.
Other moieties found present in effluents of this process were Gly-Gly, Ser-Phe, and Ala, along with possibly other amino acid residues as well.

[2] = system: IL-2 receptors on T-helper cells; test: T-helper cell IL-2 receptor expression assay; assay type: cell-based, human
[3] = system: gamma-interferon production in normal cells; test: Antigen-induced production of gamma interferon; assay type: cell-based, human
Text: The LIF assay is described in Gottlieb et al., Modulation of Human T Cell Production, J. Immunology 132: 256-260 (Jan. 1984), at p. 257. Protocols for the other assays are believed to be known to those skilled in this art. A convenient reference for the gamma-interferon assay in Sinha et al., Bio/Technology 6:810 (1988), at pp. 814-15.
Preparations of 0.1 Lf /ml and 1.0 Lf /ml TT were used to determine the effect of Beta-1.11 (endogenous YG-material) on production of gamma-interferon in normal cells. As before, serial dilutions of Beta-1.11 were prepared from 46.5 pM to 91 fM.

[4] = system: DH response to tetanus toxoid (TT); set-up: species or system human; conditions: in vivo
[5] = system: L1210 leukemia cells in BDF1 strain mice; test: Mouse L1210 leukemia survival test; assay type: in vivo; conditions: 2 fg intradermally every third day (about 100 fg/kg); 5 mice per group; present-tense example
Procedure: Ten BDF1 strain mice are divided into two groups of 5. Each mouse is injected with 100 L1210 leukemia cells from ascitic fluid of DBA/2 host mice.
The mice in Group I (control) are thereafter given injections of 0.1 ml sterile saline every third day. The mice in Group II are thereafter given intradermal injections of 2 fg of synthetic YG of Example 20 in 0.1 ml of sterile saline, every third day. The mice weigh approximately 20 g each, so that 2 fg represents approximately 100 fg/kg of bodyweight.
The mice in Group I (control) are thereafter given injections of 0.1 ml sterile saline every third day. The mice in Group II are thereafter given intradermal injections of 2 fg of synthetic Tyr-D-Ala-Gly of Example 25 in 0.1 ml of sterile saline, every third day. The mice were approximately 20 g each, so that 2 fg represents approximately 100 fg/kg of bodyweight.

Compound: C[C@H](N)C(=O)O [Ala]
- immunological activity as assayed by DH test [1]: None of these other moieties appeared to possess immunological activity

Compound: C[C@@H](NC(=O)[C@@H](N)Cc1ccc(O)cc1)C(=O)NCC(=O)O [Tyr-D-Ala-Gly, L-tyrosyl-D-alanyl-L-glycine] (H-Tyr-[dA]-Gly-OH)
- concentration giving the highest figure for high density of receptors [2]: approximately 2 fM
- effect relative to endogenous material [2]: approximately an order of magnitude less in effect than endogenous YGG-material
- increase of IL-2 receptors (high density maximum), factor [2]: approximately 1.5
- concentration at maximum gamma-interferon production ([3]; 1.0 Lf/ml TT): approximately 20 fM
- potency relative to endogenous YG-material ([3]; gamma interferon assay, human sources not identical): an order of magnitude more potent
- amplifier effect in DH assay [4]: slightly better than that observed in Table 1 of Gottlieb U.S. Pat. No. 4,699,898
- skin reaction without TT [4]: No reaction is observed
- mean survival longer than control group [5]: approximately 2.8 days

Compound: N[C@@H](Cc1ccc(O)cc1)C(=O)NCC(=O)NCC(=O)O [YGG, L-tyrosylglycylglycine] (H-Tyr-Gly-Gly-OH)
- potency relative to corresponding endogenous amplifier materials Beta-1.11 and Beta-1.12 [4]: an order of magnitude less potent

Compound: N[C@@H](Cc1ccccc1)C(=O)O [phenylalanine]
- amplifier / immunological activity [1]: found to lack intrinsic amplifier activity

Compound: N[C@@H](Cc1ccc(O)cc1)C(=O)NCC(=O)O [synthetic YG, L-tyrosylglycine]
- increase of IL-2 receptors (high density maximum), factor [2]: approximately 1.6
- concentration giving the highest figure for high density of receptors ([2]; TT + serial dilutions): approximately 22 fM
- potency relative to corresponding endogenous amplifier materials Beta-1.11 and Beta-1.12 [4]: an order of magnitude less potent
- mean survival longer than control group [5]: approximately 2.4 days

Compound: Gly-Gly
- amplifier / immunological activity [1]: found to lack intrinsic amplifier activity
- immunological activity as assayed by DH test [1]: None of these other moieties appeared to possess immunological activity

Compound: Tyr-Gly-Gly-Phe-Ile (YGGFI; printed: Tyr-Gly-Gly-Phe-Ile)
- immunological activity in DH assay [4]: Significant immunological activity is not observed
- molar concentration giving activity comparable to YG, relative to YG in Example 21 [4]: 8-10 orders of magnitude
